Where “and” joins values, the source holds several entries; their conditions need not be identical. Equal values may be shown once. Toxic doses and inconclusive results are not listed. Rule for the calls: active = survival T/C of 150% or more; inactive = T/C below 125% in these data.
System: P388 leukemia ip, CD2F1 mice, survival T/C
Assay: NCI In Vivo Anticancer Drug Screen. Data for tumor model P388 Leukemia (intraperitoneal) in CD2F1 (CDF1) mice
Conditions: endpoint: median survival time, higher = longer survival
Outline: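 Mice carrying the transplanted tumor received test compound or vehicle. Survival was recorded in each group, and the value is the treated-group measurement divided by that of the vehicle-treated control group.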

[1] = dose: 50.0 mg/kg/injection, schedule: Q01DX005 (ip), vehicle: saline with Tween-80
[2] = dose: 100.0 mg/kg/injection, schedule: Q01DX005 (ip), vehicle: saline with Tween-80
[3] = dose: 200.0 mg/kg/injection, schedule: Q01DX005 (ip), vehicle: saline with Tween-80
[4] = dose: 60.0 mg/kg/injection, schedule: Q01DX005 (ip), vehicle: saline with Tween-80
[5] = dose: 120.0 mg/kg/injection, schedule: Q01DX005 (ip), vehicle: saline with Tween-80
[6] = dose: 240.0 mg/kg/injection, schedule: Q01DX005 (ip), vehicle: saline with Tween-80
[7] = dose: 50.0 mg/kg/injection, schedule: Q01DX009 (ip), vehicle: Klucel (hydroxypropylcellulose) (HPC)
[8] = dose: 100.0 mg/kg/injection, schedule: Q01DX009 (ip), vehicle: Klucel (hydroxypropylcellulose) (HPC)
[9] = dose: 200.0 mg/kg/injection, schedule: Q01DX009 (ip), vehicle: Klucel (hydroxypropylcellulose) (HPC)
[10] = dose: 60.0 mg/kg/injection, schedule: Q01DX005 (ip), vehicle: Klucel (hydroxypropylcellulose) (HPC)
[11] = dose: 120.0 mg/kg/injection, schedule: Q01DX005 (ip), vehicle: Klucel (hydroxypropylcellulose) (HPC)
[12] = dose: 25.0 mg/kg/injection, schedule: Q01DX005 (ip), vehicle: saline with Tween-80
[13] = dose: 50.0 mg/kg/injection, schedule: Q01DX009 (ip), vehicle: saline
[14] = dose: 100.0 mg/kg/injection, schedule: Q01DX009 (ip), vehicle: saline
[15] = dose: 200.0 mg/kg/injection, schedule: Q01DX009 (ip), vehicle: saline
[16] = dose: 50.0 mg/kg/injection, schedule: Q01DX005 (ip), vehicle: Klucel (hydroxypropylcellulose) (HPC)
[17] = dose: 100.0 mg/kg/injection, schedule: Q01DX005 (ip), vehicle: Klucel (hydroxypropylcellulose) (HPC)

Measured: T/C

COc1cccc(-c2c(C#N)c(=O)n(C)c3nncn23)c1
inactive: dose: 100.0 mg/kg/injection, schedule: Q01DX001 (ip), vehicle: saline with Tween-80 97 % of control | dose: 200.0 mg/kg/injection, schedule: Q01DX001 (ip), vehicle: saline with Tween-80 94 % of control | dose: 400.0 mg/kg/injection, schedule: Q01DX001 (ip), vehicle: saline with Tween-80 91 % of control

COc1nc2c(c(=O)n1C)C(=O)CN2C1OC(COC(C)=O)C(OC(C)=O)C(OC(C)=O)C1OC(C)=O (stereo unspecified)
inactive: [1] 103 % of control | [2] 108 % of control | [3] 103 % of control

CCOC(=O)/C=C1\CCC(C)n2c1nccc2=O (stereo unspecified)
inactive: [4] 97 % of control | [5] 101 % of control | [6] 98 % of control

O=C(O)c1ccc(N=NNc2ccc(C(=O)O)cc2)cc1
inactive: [7] 96 % of control | [8] 99 % of control | [9] 95 % of control | dose: 400.0 mg/kg/injection, schedule: Q01DX009 (ip), vehicle: Klucel (hydroxypropylcellulose) (HPC) 96 % of control

C=C1CC(C2OCOC3COCOC32)OC1=O (stereo unspecified)
inactive: [10] 104 % of control | [11] 111 % of control

C[N+]1(C)CC[N+](C)(C)CC1
inactive: dose: 25.0 mg/kg/injection, schedule: Q01DX009 (ip), vehicle: Klucel (hydroxypropylcellulose) (HPC) 103 % of control | [7] 103 % of control | [8] 100 % of control | [9] 110 % of control

c1ccc2c(c1)Cc1c-2nc2ccccc2c1N1CCOCC1
inactive: [12] 100 % of control | [1] 106 % of control and 93 % of control | [2] 103 % of control and 112 % of control | [3] 119 % of control

COc1cccc(C2c3cc4c(cc3OC(C)(O)C2C)OCO4)c1OC (stereo unspecified)
inactive: [10] 103 % of control | [11] 97 % of control | dose: 240.0 mg/kg/injection, schedule: Q01DX005 (ip), vehicle: Klucel (hydroxypropylcellulose) (HPC) 95 % of control

CCOC(=O)C1OC(C2(C)OC3(OC4(C=CC3O)OC(C(C)C(=O)C(C)C(O)C(C)CC(C)c3c(Cl)cc(C)c(O)c3C(=O)O)C(C)CC4C)C(C)C2OC)CC1O (stereo unspecified)
inactive: dose: 1.25 mg/kg/injection, schedule: Q01DX005 (ip), vehicle: Klucel (hydroxypropylcellulose) (HPC) 107 % of control | dose: 2.5 mg/kg/injection, schedule: Q01DX005 (ip), vehicle: Klucel (hydroxypropylcellulose) (HPC) 100 % of control

O=CNc1ccn[nH]1
inactive: [13] 106 % of control | [14] 101 % of control | [15] 100 % of control

COc1cc2cc(-c3cc(OC)c(OC)c(OC)c3)c3c(c2cc1OC)CNC3
inactive: dose: 3.12 mg/kg/injection, schedule: Q04DX003 (ip), vehicle: saline with Tween-80 100 % of control | dose: 6.25 mg/kg/injection, schedule: Q04DX003 (ip), vehicle: saline with Tween-80 105 % of control | dose: 12.5 mg/kg/injection, schedule: Q04DX003 (ip), vehicle: saline with Tween-80 100 % of control | dose: 25.0 mg/kg/injection, schedule: Q04DX003 (ip), vehicle: saline with Tween-80 98 % of control | dose: 50.0 mg/kg/injection, schedule: Q04DX003 (ip), vehicle: saline with Tween-80 97 % of control

O=S1(=O)CC23C=CC=CC2(CCCC3)C1Cl (stereo unspecified)
inactive: dose: 12.5 mg/kg/injection, schedule: Q01DX005 (ip), vehicle: Klucel (hydroxypropylcellulose) (HPC) 93 % of control | dose: 25.0 mg/kg/injection, schedule: Q01DX005 (ip), vehicle: Klucel (hydroxypropylcellulose) (HPC) 89 % of control | [16] 91 % of control

CC(=O)OC1COC(n2cnc3c(Cl)nc(Cl)nc32)C(OC(C)=O)C1OC(C)=O (stereo unspecified)
inactive: [16] 107 % of control | [17] 108 % of control

Cc1cc(O)c(C=O)c2c1C(=O)Oc1c(COC(=O)/C=C/C(=O)O)c(O)c(C(=O)O)c(C)c1O2
inactive: dose: 0.25 mg/kg/injection, schedule: Q01DX009 (ip), vehicle: saline with Tween-80 104 % of control | dose: 0.5 mg/kg/injection, schedule: Q01DX009 (ip), vehicle: saline with Tween-80 96 % of control | dose: 1.0 mg/kg/injection, schedule: Q01DX009 (ip), vehicle: saline with Tween-80 101 % of control | [13] 90 % of control | [14] 90 % of control

CC1(C)COP(Oc2ccccc2)OC1
inactive: dose: 25.0 mg/kg/injection, schedule: Q01DX009 (ip), vehicle: saline + Tween-80 + alcohol 102 % of control | dose: 50.0 mg/kg/injection, schedule: Q01DX009 (ip), vehicle: saline + Tween-80 + alcohol 103 % of control | dose: 100.0 mg/kg/injection, schedule: Q01DX009 (ip), vehicle: saline + Tween-80 + alcohol 100 % of control | dose: 200.0 mg/kg/injection, schedule: Q01DX009 (ip), vehicle: saline + Tween-80 + alcohol 96 % of control

CCCN(C)CC(=O)NC(Cc1ccccc1)c1ccccc1 (stereo unspecified)
inactive: dose: 30.0 mg/kg/injection, schedule: Q01DX005 (ip), vehicle: Klucel (hydroxypropylcellulose) (HPC) 94 % of control | [10] 93 % of control | [11] 104 % of control

O=C1CSC(=S)N1c1ccc(F)c(F)c1
inactive: [13] 107 % of control | [14] 106 % of control | [15] 108 % of control

COc1cc2c(cc1O)-c1c(cnn1-c1ccc([N+](=O)[O-])cc1[N+](=O)[O-])CCC2
inactive: dose: 100.0 mg/kg/injection, schedule: Q04DX003 (ip), vehicle: saline 100 % of control | dose: 200.0 mg/kg/injection, schedule: Q04DX003 (ip), vehicle: saline 99 % of control | dose: 400.0 mg/kg/injection, schedule: Q04DX003 (ip), vehicle: saline 96 % of control

O[C@]12C=C[C@H](CCCC1)O2
inactive: [1] 107 % of control | [2] 108 % of control | [3] 111 % of control

O=[N+]([O-])c1ccc(OCC#CCOc2ccc([N+](=O)[O-])c(C(F)(F)F)c2)cc1C(F)(F)F
inactive: dose: 50.0 mg/kg/injection, schedule: Q01DX009 (ip), vehicle: other 105 % of control | dose: 100.0 mg/kg/injection, schedule: Q01DX009 (ip), vehicle: other 104 % of control | dose: 200.0 mg/kg/injection, schedule: Q01DX009 (ip), vehicle: other 102 % of control

CCCCCCCCCCN(CCCCCCCCCC)CC(O)c1ccc2nc3c(cc2c1)CCCC3 (stereo unspecified)
inactive: dose: 12.5 mg/kg/injection, schedule: Q01DX005 (ip), vehicle: saline with Tween-80 101 % of control | [12] 101 % of control | [1] 102 % of control and 94 % of control

CN(C)CC(CN(C)C)C(=O)c1ccc(Cl)c(Cl)c1
inactive: dose: 12.5 mg/kg/injection, schedule: Q01DX005 (ip), vehicle: saline 108 % of control | dose: 25.0 mg/kg/injection, schedule: Q01DX005 (ip), vehicle: saline 105 % of control | dose: 50.0 mg/kg/injection, schedule: Q01DX005 (ip), vehicle: saline 100 % of control and 104 % of control

CSc1nc(NC2OC(COC(C)=O)C(OC(C)=O)C(OC(C)=O)C2OC(C)=O)c(N=CC=Nc2c(NC3OC(COC(C)=O)C(OC(C)=O)C(OC(C)=O)C3OC(C)=O)nc(SC)[nH]c2=O)c(=O)[nH]1 (stereo unspecified)
inactive: [4] 89 % of control | [5] 99 % of control | [6] 111 % of control

NC(CCl)C(=O)NO (stereo unspecified)
inactive: [13] 99 % of control | [14] 96 % of control | [15] 103 % of control

COC(=O)CCC(=S)N(C)C
inactive: [16] 101 % of control | [17] 101 % of control | dose: 200.0 mg/kg/injection, schedule: Q01DX005 (ip), vehicle: Klucel (hydroxypropylcellulose) (HPC) 103 % of control

N#CC1C(=O)NC(=S)NC1c1ccc(C2CC(=O)NC(=S)N2)cc1 (stereo unspecified)
inactive: dose: 50.0 mg/kg/injection, schedule: Q01DX009 (ip), vehicle: saline with Tween-80 104 % of control | dose: 100.0 mg/kg/injection, schedule: Q01DX009 (ip), vehicle: saline with Tween-80 105 % of control | dose: 200.0 mg/kg/injection, schedule: Q01DX009 (ip), vehicle: saline with Tween-80 106 % of control

CC(=O)Nc1ccc(C(=O)N2C(=N)C(C#N)=C(O)/C2=C\c2ccc(Cl)c(Cl)c2)cc1
inactive: dose: 60.0 mg/kg/injection, schedule: Q01DX005 (ip), vehicle: saline 100 % of control | dose: 120.0 mg/kg/injection, schedule: Q01DX005 (ip), vehicle: saline 100 % of control | dose: 240.0 mg/kg/injection, schedule: Q01DX005 (ip), vehicle: saline 103 % of control

— PubChem BioAssay AID330 (DTP/NCI, 2004)
